Columns and labels:
[1] = biological target: GDP-bound NRAS wild-type protein (Homo sapiens, UniProt P01111); test: Binding to NRAS by surface plasmon resonance (SPR), Single Cycle Kinetics; conditions: for NRAS/KRAS (ratio of KD value with respect to GDP-bound NRAS wild-type protein to KD value with respect to KRAS): SPR KD ratio NRAS/KRAS, class symbols; for NRAS/KRAS (ratio of KD value for NRAS to KD value for KRAS): SPR, GDP-bound NRAS wild-type protein vs GDP-bound KRAS wild-type protein
[2] = biological target: GDP-bound HRAS wild-type protein (Homo sapiens, UniProt P01112); test: Binding to HRAS by surface plasmon resonance (SPR), Single Cycle Kinetics; conditions: for HRAS/KRAS (ratio of KD value with respect to GDP-bound HRAS wild-type protein to KD value with respect to KRAS): SPR KD ratio HRAS/KRAS, class symbols; for HRAS/KRAS (ratio of KD value for HRAS to KD value for KRAS): SPR, GDP-bound HRAS wild-type protein vs GDP-bound KRAS wild-type protein
GDP-bound HRAS wild-type protein, sequence (P01112 whole entry): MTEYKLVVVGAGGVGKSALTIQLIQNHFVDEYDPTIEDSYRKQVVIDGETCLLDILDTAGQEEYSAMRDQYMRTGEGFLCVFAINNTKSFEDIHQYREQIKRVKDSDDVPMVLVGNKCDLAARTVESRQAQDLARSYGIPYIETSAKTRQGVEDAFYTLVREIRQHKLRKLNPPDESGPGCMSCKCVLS

GDP-bound NRAS wild-type protein, sequence (P01111 whole entry): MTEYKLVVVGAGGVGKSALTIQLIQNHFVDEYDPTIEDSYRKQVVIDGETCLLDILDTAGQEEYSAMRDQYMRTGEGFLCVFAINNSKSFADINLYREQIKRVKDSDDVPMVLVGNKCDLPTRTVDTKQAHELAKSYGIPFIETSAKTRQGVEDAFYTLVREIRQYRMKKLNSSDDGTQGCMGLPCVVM

## CCC[C@H]1C(=O)N[C@@H]([C@@H](C)CC)C(=O)N(C)CC(=O)N(C)[C@H]2C/C=C\CCN(C2=O)[C@@H](Cc2ccc(C)cc2)C(=O)N(C)CC(=O)N[C@@H](CCc2cc(Cl)c3c(ccn3C)c2)C(=O)N2C[C@H](OCC)C[C@H]2C(=O)NC2(CC(C)(C)C2)C(=O)N(C)[C@@H](C2CCCC2)C(=O)N(C)[C@H](C(=O)N(C)C)CC(=O)N1C [PP2951]
[1]
  NRAS/KRAS (ratio of KD value with respect to GDP-bound NRAS wild-type protein to KD value with respect to KRAS): A (a compound having 10 or more and less than 20 is denoted as A)
[2]
  HRAS/KRAS (ratio of KD value with respect to GDP-bound HRAS wild-type protein to KD value with respect to KRAS): A (a compound having 10 or more and less than 20 is denoted as A)

## CCC(CC)[C@H]1C(=O)N(C)[C@H](C(=O)N(C)C)CC(=O)N(C)[C@@H](COC)C(=O)N[C@@H]([C@@H](C)CC)C(=O)N(C)CC(=O)N(C)[C@H]2C/C=C\CCN(C2=O)[C@@H](Cc2ccc(C)cc2)C(=O)N(C)CC(=O)N[C@@H](CCc2cc(F)c(C(F)(F)F)c(F)c2)C(=O)N2CCCCC[C@H]2C(=O)NC2(CC(C)(C)C2)C(=O)N1C [PP2960]
[1]
  NRAS/KRAS (ratio of KD value with respect to GDP-bound NRAS wild-type protein to KD value with respect to KRAS): A (a compound having 10 or more and less than 20 is denoted as A)
[2]
  HRAS/KRAS (ratio of KD value with respect to GDP-bound HRAS wild-type protein to KD value with respect to KRAS): A (a compound having 10 or more and less than 20 is denoted as A)

## CCC(CC)[C@H]1C(=O)N(C)[C@H](C(=O)N(C)C)CC(=O)N(C)[C@@H](COC)C(=O)N[C@@H]([C@@H](C)CC)C(=O)N(C)CC(=O)N(C)[C@H]2C/C=C\CCN(C2=O)[C@@H](Cc2ccc(C)cc2)C(=O)N(C)CC(=O)N[C@@H](CCc2ccc(C(F)(F)F)c(Cl)c2)C(=O)N2CCCCC[C@H]2C(=O)NC2(CC(C)(C)C2)C(=O)N1C [PP2966]
[1]
  NRAS/KRAS (ratio of KD value with respect to GDP-bound NRAS wild-type protein to KD value with respect to KRAS): A (a compound having 10 or more and less than 20 is denoted as A)
[2]
  HRAS/KRAS (ratio of KD value with respect to GDP-bound HRAS wild-type protein to KD value with respect to KRAS): A (a compound having 10 or more and less than 20 is denoted as A)

## CCC(CC)[C@H]1C(=O)N(C)[C@H](C(=O)N(C)C)CC(=O)N(C)[C@@H](COC)C(=O)N[C@@H]([C@@H](C)CC)C(=O)N(C)CC(=O)N(C)[C@H]2C/C=C\CCN(C2=O)[C@@H](Cc2ccc(C)cc2)C(=O)N(C)CC(=O)N[C@@H](CCc2ccc(C(F)(F)F)c(Cl)c2)C(=O)N2CC3(CC3)C[C@H]2C(=O)NC2(CC(C)(C)C2)C(=O)N1C [PP2967]
[1]
  NRAS/KRAS (ratio of KD value with respect to GDP-bound NRAS wild-type protein to KD value with respect to KRAS): AA (a compound having 20 or more is denoted as AA)
[2]
  HRAS/KRAS (ratio of KD value with respect to GDP-bound HRAS wild-type protein to KD value with respect to KRAS): A (a compound having 10 or more and less than 20 is denoted as A)

## CCC(CC)[C@H]1C(=O)N(C)[C@H](C(=O)N(C)C)CC(=O)N(C)[C@@H](COC)C(=O)N[C@@H]([C@@H](C)CC)C(=O)N(C)CC(=O)N(C)[C@H]2C/C=C\CCN(C2=O)[C@@H](Cc2ccc(C)cc2)C(=O)N(C)CC(=O)N[C@@H](CCc2ccc(C(F)(F)F)c(OC)c2)C(=O)N2CCCCC[C@H]2C(=O)NC2(CC(C)(C)C2)C(=O)N1C [PP2970]
[1]
  NRAS/KRAS (ratio of KD value with respect to GDP-bound NRAS wild-type protein to KD value with respect to KRAS): A (a compound having 10 or more and less than 20 is denoted as A)
[2]
  HRAS/KRAS (ratio of KD value with respect to GDP-bound HRAS wild-type protein to KD value with respect to KRAS): A (a compound having 10 or more and less than 20 is denoted as A)

## CCC(CC)[C@H]1C(=O)N(C)[C@H](C(=O)N(C)C)CC(=O)N(C)[C@@H](COC)C(=O)N[C@@H]([C@@H](C)CC)C(=O)N(C)CC(=O)N(C)[C@H]2C/C=C\CCN(C2=O)[C@@H](Cc2ccc(C)cc2)C(=O)N(C)CC(=O)N[C@@H](CCc2ccc(Cl)c(Cl)c2)C(=O)N2CCCCC[C@H]2C(=O)NC2(CC(C)(C)C2)C(=O)N1C [PP2974]
[1]
  NRAS/KRAS (ratio of KD value for NRAS to KD value for KRAS): A (a compound having 10 or more and less than 20 is denoted as A)
[2]
  HRAS/KRAS (ratio of KD value for HRAS to KD value for KRAS): A (a compound having 10 or more and less than 20 is denoted as A)

## C#CC[C@H]1C(=O)N[C@@H]([C@@H](C)CC)C(=O)N(C)CC(=O)N(C)[C@H]2C/C=C\CCN(C2=O)[C@@H](Cc2ccc(C)cc2)C(=O)N(C)CC(=O)N[C@@H](CCc2cc(F)c(C(F)(F)F)c(F)c2)C(=O)N2CC3(CC3)C[C@H]2C(=O)NC2(CC(C)(C)C2)C(=O)N(C)[C@@H](C2CCCC2)C(=O)N(C)[C@H](C(=O)N(C)C)CC(=O)N1C [PP2978]
[1]
  NRAS/KRAS (ratio of KD value for NRAS to KD value for KRAS): A (a compound having 10 or more and less than 20 is denoted as A)
[2]
  HRAS/KRAS (ratio of KD value for HRAS to KD value for KRAS): A (a compound having 10 or more and less than 20 is denoted as A)

## CCC[C@H]1C(=O)N[C@@H]([C@@H](C)CC)C(=O)N(C)CC(=O)N(C)[C@H]2C/C=C\CCN(C2=O)[C@@H](Cc2ccc(C(F)(F)F)cc2)C(=O)N(C)CC(=O)N[C@@H](CCc2ccc(C(F)(F)F)c(Cl)c2)C(=O)N2CC3(CC3)C[C@H]2C(=O)NC2(CC(C)(C)C2)C(=O)N(C)[C@@H](CC(F)(F)F)C(=O)N(C)[C@H](C(=O)N(C)C)CC(=O)N1C [PP2985]
[1]
  NRAS/KRAS (ratio of KD value for NRAS to KD value for KRAS): AA (a compound having 20 or more is denoted as AA)
[2]
  HRAS/KRAS (ratio of KD value for HRAS to KD value for KRAS): A (a compound having 10 or more and less than 20 is denoted as A)

## CCC[C@H]1C(=O)N[C@@H](C2CCCC2)C(=O)N(C)CC(=O)N(C)[C@H]2C/C=C\CCN(C2=O)[C@@H](Cc2ccc(C)cc2)C(=O)N(C)CC(=O)N[C@@H](CCc2cc(F)c(C(F)(F)F)c(F)c2)C(=O)N2C[C@H](OCC)C[C@H]2C(=O)NC2(CC(C)(C)C2)C(=O)N(C)[C@@H](C2CCCC2)C(=O)N(C)[C@H](C(=O)N(C)C)CC(=O)N1C [PP2988]
[1]
  NRAS/KRAS (ratio of KD value for NRAS to KD value for KRAS): B (a compound having 3 or more and less than 10 is denoted as B)
[2]
  HRAS/KRAS (ratio of KD value for HRAS to KD value for KRAS): B (a compound having 3 or more and less than 10 is denoted as B)

## CCC[C@H]1C(=O)N[C@@H](C2CCCC2)C(=O)N(C)CC(=O)N(C)[C@H]2C/C=C\CCN(C2=O)[C@@H](Cc2ccc(C)cc2)C(=O)N(C)CC(=O)N[C@@H](CCc2ccc(C(F)(F)F)c(OC)c2)C(=O)N2CC3(CC3)C[C@H]2C(=O)NC2(CC(C)(C)C2)C(=O)N(C)[C@@H](C2CCCC2)C(=O)N(C)[C@H](C(=O)N(C)C)CC(=O)N1C [PP2994]
[1]
  NRAS/KRAS (ratio of KD value for NRAS to KD value for KRAS): AA (a compound having 20 or more is denoted as AA)
[2]
  HRAS/KRAS (ratio of KD value for HRAS to KD value for KRAS): A (a compound having 10 or more and less than 20 is denoted as A)

## CCC[C@H]1C(=O)N[C@@H]([C@@H](C)CC)C(=O)N(C)CC(=O)N(C)[C@H]2C/C=C\CCN(C2=O)[C@@H](Cc2ccc(C)cc2)C(=O)N(C)CC(=O)N[C@@H](CCc2cc(F)c(C(F)(F)F)c(F)c2)C(=O)N2C[C@H](OCC)C[C@H]2C(=O)NC2(CC(C)(C)C2)C(=O)N(C)[C@@H](CC(C)C)C(=O)N(C)[C@H](C(=O)N(C)C)CC(=O)N1C [PP2995]
[1]
  NRAS/KRAS (ratio of KD value for NRAS to KD value for KRAS): A (a compound having 10 or more and less than 20 is denoted as A)
[2]
  HRAS/KRAS (ratio of KD value for HRAS to KD value for KRAS): A (a compound having 10 or more and less than 20 is denoted as A)

## CCC[C@H]1C(=O)N[C@@H](C2CCCCC2)C(=O)N(C)CC(=O)N(C)[C@H]2C/C=C\CCN(C2=O)[C@@H](Cc2ccc(C)cc2)C(=O)N(C)CC(=O)N[C@@H](CCc2ccc(C(F)(F)F)c(Cl)c2)C(=O)N2C[C@H](OCC)C[C@H]2C(=O)NC2(CC(C)(C)C2)C(=O)N(C)[C@@H](C2CCCC2)C(=O)N(C)[C@H](C(=O)N(C)C)CC(=O)N1C [PP2998]
[1]
  NRAS/KRAS (ratio of KD value for NRAS to KD value for KRAS): A (a compound having 10 or more and less than 20 is denoted as A)
[2]
  HRAS/KRAS (ratio of KD value for HRAS to KD value for KRAS): AA (a compound having 20 or more is denoted as AA)

## CCC[C@H]1C(=O)N[C@@H](C2CCOCC2)C(=O)N(C)CC(=O)N(C)[C@H]2C/C=C\CCN(C2=O)[C@@H](Cc2ccc(C)cc2)C(=O)N(C)CC(=O)N[C@@H](CCc2ccc(C(F)(F)F)c(Cl)c2)C(=O)N2C[C@H](OCC)C[C@H]2C(=O)NC2(CC(C)(C)C2)C(=O)N(C)[C@@H](C2CCCC2)C(=O)N(C)[C@H](C(=O)N(C)C)CC(=O)N1C [PP3002]
[1]
  NRAS/KRAS (ratio of KD value for NRAS to KD value for KRAS): A (a compound having 10 or more and less than 20 is denoted as A)
[2]
  HRAS/KRAS (ratio of KD value for HRAS to KD value for KRAS): A (a compound having 10 or more and less than 20 is denoted as A)

## CCC[C@H]1C(=O)N[C@@H](C2CCCC2)C(=O)N(C)CC(=O)N(C)[C@H]2C/C=C\CCN(C2=O)[C@@H](Cc2ccc(C)cc2)C(=O)N(C)CC(=O)N[C@@H](CCc2ccc(C(F)(F)F)c(OC)c2)C(=O)N2C[C@H](OCC)C[C@H]2C(=O)NC2(CC(C)(C)C2)C(=O)N(C)[C@@H](CC(C)(C)C)C(=O)N(C)[C@H](C(=O)N(C)C)CC(=O)N1C [PP3005]
[1]
  NRAS/KRAS (ratio of KD value for NRAS to KD value for KRAS): A (a compound having 10 or more and less than 20 is denoted as A)
[2]
  HRAS/KRAS (ratio of KD value for HRAS to KD value for KRAS): B (a compound having 3 or more and less than 10 is denoted as B)

## CCC[C@H]1C(=O)N[C@@H]([C@@H](C)CC)C(=O)N(C)CC(=O)N(C)[C@H]2C/C=C\CCN(C2=O)[C@@H](Cc2ccc(C)cc2)C(=O)N(C)CC(=O)N[C@@H](CCc2ccc(C(F)(F)F)c(OC)c2)C(=O)N2C[C@H](OCC)C[C@H]2C(=O)NC2(CC(C)(C)C2)C(=O)N(C)[C@@H](CC(C)C)C(=O)N(C)[C@H](C(=O)N(C)C)CC(=O)N1C [PP3008]
[1]
  NRAS/KRAS (ratio of KD value for NRAS to KD value for KRAS): A (a compound having 10 or more and less than 20 is denoted as A)
[2]
  HRAS/KRAS (ratio of KD value for HRAS to KD value for KRAS): A (a compound having 10 or more and less than 20 is denoted as A)

## CCC[C@H]1C(=O)N[C@@H]([C@@H](C)CC)C(=O)N(C)CC(=O)N(C)[C@H]2C/C=C\CCN(C2=O)[C@@H](Cc2ccc(C)cc2)C(=O)N(C)CC(=O)N[C@@H](CCc2ccc(C(F)(F)F)c(OC)c2)C(=O)N2CC3(CC3)C[C@H]2C(=O)NC2(CC(C)(C)C2)C(=O)N(C)[C@@H](CC(C)(C)C)C(=O)N(C)[C@H](C(=O)N(C)C)CC(=O)N1C [PP3009]
[1]
  NRAS/KRAS (ratio of KD value for NRAS to KD value for KRAS): A (a compound having 10 or more and less than 20 is denoted as A)
[2]
  HRAS/KRAS (ratio of KD value for HRAS to KD value for KRAS): A (a compound having 10 or more and less than 20 is denoted as A)

— patent US20240158446A1, “CYCLIC COMPOUND HAVING SELECTIVE INHIBITORY ACTION ON KRAS OVER HRAS AND NRAS” (CHUGAI SEIYAKU KABUSHIKI KAISHA, priority 2021, published 2024)
